Test results published in patent US20230363335A1, “STANDARDIZED AND VIRUS-FREE RAPID PROPAGATION METHOD OF DIANTHUS CARYOPHYLLUS” (Flower Research Institute, Yunnan Academy of Agricultural …, priority 2022, published 2023).

Columns and labels:
[1] = tested on: Carnation mottle virus (CarMV) and Carnation necrotic fleck virus (CNFV); test: Virus-free culture, ribavirin combined with shoot apex peeling: virus-free regenerated plants; assay type: in vivo, Dianthus caryophyllus; conditions: 3 mg/L to 5 mg/L ribavirin in medium, 30 d to 40 d; for Number of virus-free regenerated plant (s): 30 shoot apexes
Experimental: Double-antibody sandwich ELISA included: 100 µL of an antibody diluted to a working concentration with a coating buffer was added to wells of a microtiter plate, the microtiter plate was placed in a wet box, and incubated in a refrigerator at 4° C. overnight, or incubated at room temperature (20° C. to 25° C.) for 4 h. The coating buffer was a 0.05 mol/L Na2CO3—NaHCO3 buffer, at a pH value of 9.6. Dianthus caryophyllus leaves and a grinding buffer were put in a disposable ziplock bag at a ratio of 1:10 (W/V), the bag was sealed tightly, and the sample was ground. The grinding buffer was obtained by: dissolving 2.0 g of a skim milk powder, 10.0 g of polyvinylpyrrolidone (PVP, MW24,000-40,000), 1.3 g of anhydrous sodium sulfite, 0.2 g of NaN3, and 10.0 g of Tween-20 in a washing buffer (PBST), diluting to 1,000 mL, and storing at 4° C. The washing buffer (PBST) was obtained by: dissolving 8.0 g of NaCl, 0.2 g of KH2PO4, 2.9 g of Na2HPO4·12H2O, 0.2 g of KCl, and 0.5 mL of Tween-20 in distilled water, diluting to 1,000 mL, and adjusting to a pH value of 7.4. After incubation, the microtiter plate was washed 4 to 6 times with the washing buffer. 400 µL of the PBST washing buffer was added to each well and held for 1 min to 2 min each time. 100 µL of a supernatant after grinding was added to each well, and each sample to be tested was repeated twice, and a negative control and a positive control were set at the same time. The microtiter plate was placed in a wet box, incubated in a refrigerator at 4° C. overnight or incubated at 21° C. to 24° C. for 2.5 h. The plate was washed. An enzyme-labeled antibody was prepared 10 min before coating, a dilution buffer of the specific enzyme-labeled antibody was diluted to a working concentration, and 100 µL was added to each well. The microtiter plate was placed in a wet box, incubated at 21° C. to 24° C. for 2.5 h. The plate was washed. The dilution buffer of the enzyme-labeled antibody was obtained by: dissolving 2.0 g of bovine serum albumin (BSA), 10.0 g of PVP (MW24,000-40,000), and 0.2 g of NaN3 in the PBST, diluting to 1,000 mL, and storing at 4° C. 100 µL of a substrate solution was added to each well. The substrate solution was prepared for immediate use by: dissolving 1 mg of PNPP in 1 mL of a substrate buffer, with a concentration of 1 mg/mL. The substrate buffer is obtained by: dissolving 97.0 mL of diethanolamine, 0.1 g of magnesium chloride, and 0.2 g of NaN3 in 800 mL of distilled water, adjusting to a pH value of 9.8 with 2 mol/L hydrochloric acid, diluting to 1000 mL, and storing at 4° C. The microtiter plate was placed in a wet box, to conduct color development at 21° C. to 24° C. for 30 min to 60 min in the dark. 50 µL of a stop solution was added to each well to stop the reaction. The stop solution was a sodium hydroxide solution of 3 mol/L. Within 20 min of stopping the reaction, the microtiter plate was placed in a microplate reader, an absorbance (OD405) was measured at 405 nm, and a reaction result was recorded. If an average OD value of the sample was greater than 2 times an OD value of the negative control, it was determined to be the CarMV.
The indirect ELISA included: Dianthus caryophyllus leaves and an indirect sample extraction buffer were placed in a disposable ziplock bag at a ratio of 1:100 (W/V), the bag was sealed tightly, and the sample was ground. The sample extraction buffer was obtained by: dissolving 20.1 g of PVP (MW24,000-40,000), 0.2 g of NaN3, 3.0 g of NaHCO3, and 1.6 g of Na2CO3 in distilled water, diluting to […], and storing at 4° C. 100 µL of a supernatant after grinding was added to each well, and each sample to be tested was repeated twice, and a negative control and a positive control were set at the same time. The microtiter plate was placed in a wet box and incubated at room temperature for 1 h. After incubation, the microtiter plate was washed 8 times with the PBST washing buffer. […]

[2] = tested on: Dianthus caryophyllus shoot apex; test: Virus-free culture, ribavirin combined with shoot apex peeling: regeneration of peeled shoot apex; assay type: in vivo; conditions: 3 mg/L to 5 mg/L ribavirin in medium, 30 d to 40 d; for Number of regenerated plant (s): 30 shoot apexes
Description: After the explant germinated and buds grew to 2 cm to 3 cm, the buds were cut and subjected to virus-free culture; three virus-free methods were used, and the most suitable virus-free method was selected for Dianthus caryophyllus. • (1) Directly shoot apex peeling method: the material was placed on an ultra-clean workbench, and tender leaves were peeled off with tweezers and a scalpel under the naked eye to expose a growth cone; a base of the bud was fixed with tweezers, and the shoot apex was continued to be peeled under a dissecting microscope at 25 to 50 times; when peeling to a growth point containing 1 to 2 pairs of leaf primordia, the shoot apex was picked on a medium with the tip of a knife. • (2) High-temperature treatment combined with shoot apex peeling method: the material was placed in a KBWF720 artificial climate box, and incubated for 30 d to 35 d at 38° C. ± 1° C. every day, with illumination for 14 h to 16 h at 1,200 Lux to 1,500 Lux, and then with darkness for 8 h to 10 h; and the shoot apex was continued to be peeled under a dissecting microscope at 25 to 50 times; when peeling to a growth point containing 1 to 2 pairs of leaf primordia, the shoot apex was picked on a medium with the tip of a knife. • (3) Ribavirin combined with shoot apex peeling method: the material was inoculated on a medium containing ribavirin for culture, namely MS+BA 0.5 mg/L to 1.5 mg/L+NAA 0.1 mg/L to 0.3 mg/L+3 mg/L to 5 mg/L ribavirin+A Agar 6.0 g/L, 3% sucrose, at a pH value of 5.8 to 6.0; after culturing for 30 d to 40 d, the shoot apex was peeled off.
The peeled shoot apex was inoculated on a medium including MS+BA 0.5 mg/L to 1.0 mg/L+NAA 0.1 mg/L to 0.3 mg/L+A agar 6.0 g/L, 3% sucrose, at a pH value of 5.8 to 6.0; each shoot apex was cultured and numbered separately; the culture was conducted at 22±1° C. and an illumination intensity of 2,000 Lux to 4,000 Lux with an illumination time of 10 h/d to 12 h/d.

[3] = growth point of peeled shoot apex 0.2 mm
[4] = growth point of peeled shoot apex 0.4 mm
[5] = growth point of peeled shoot apex 0.6 mm
[6] = growth point of peeled shoot apex 0.8 mm
[7] = growth point of peeled shoot apex 1.0 mm

What does the source list for `NC(=O)c1ncn([C@@H]2O[C@H](CO)[C@@H](O)[C@H]2O)n1` [Ribavirin, ribavirin]?
Virus-free rate (%) [1, 3]: 33.33%; Number of virus-free regenerated plant (s) [1, 3]: 10; Virus-free rate (%) [1, 4]: 30.00%; Number of virus-free regenerated plant (s) [1, 4]: 9; Virus-free rate (%) [1, 5]: 26.67%; Number of virus-free regenerated plant (s) [1, 5]: 8; Virus-free rate (%) [1, 6]: 20.00%; Number of virus-free regenerated plant (s) [1, 6]: 6; Virus-free rate (%) [1, 7]: 10.00%; Number of virus-free regenerated plant (s) [1, 7]: 3; Regeneration rate (%) [2, 3]: 53.33%; Number of regenerated plant (s) [2, 3]: 16; Regeneration rate (%) [2, 4]: 63.33%; Number of regenerated plant (s) [2, 4]: 19; Regeneration rate (%) [2, 5]: 73.33%; Number of regenerated plant (s) [2, 5]: 22; Regeneration rate (%) [2, 6]: 86.67%; Number of regenerated plant (s) [2, 6]: 26; Regeneration rate (%) [2, 7]: 96.67%; Number of regenerated plant (s) [2, 7]: 29
